Reference: the NIST ThermoML archive (doi:10.1016/j.jct.2007.10.004)
Numbers after ± are expanded uncertainties. Each block holds one compound with its values, some of them ahead of it.

How the values were obtained:
[1] = Molar enthalpy of transition or fusion; details: Crystal; DSC
[2] = Crystal
[3] = Solid-liquid equilibrium temperature; details: Crystal

Compound: O=C(O)C1CCCCC1 [cyclohexanecarboxylic acid]
Molar enthalpy of transition or fusion [1]: 2.2 ± 0.0645 kcal/mol | Normal melting temperature ([2]; DTA): 29.8 ± 0.5 °C | Solid-liquid equilibrium temperature ([3]; 800 kPa, visual observation): 303.15 ± 0.26 K | Solid-liquid equilibrium temperature ([3]; 31000 kPa, visual observation): 313.15 ± 0.52 K | Solid-liquid equilibrium temperature ([3]; 63000 kPa, visual observation): 323.15 ± 0.9 K | Solid-liquid equilibrium temperature ([3]; 92000 kPa, visual observation): 333.15 ± 1.3 K | Solid-liquid equilibrium temperature ([3]; 121000 kPa, visual observation): 343.15 ± 1.7 K | Solid-liquid equilibrium temperature ([3]; 150000 kPa, visual observation): 353.15 ± 2.1 K

Compound: O=C(O)CC1CCCCC1 [cyclohexylethanoic acid]
Molar enthalpy of transition or fusion [1]: 3.3 ± 0.086 kcal/mol | Normal melting temperature ([2]; DTA): 28.8 ± 0.4 °C

Compound: CCCCCCCCO [octan-1-ol]
Normal melting temperature [2]: -14.60 ± 0.62 °C | Solid-liquid equilibrium temperature ([3]; 216000 kPa, Closed cell (Static) method): 303.15 ± 1.7 K | Solid-liquid equilibrium temperature ([3]; 268000 kPa, Closed cell (Static) method): 313.15 ± 1.9 K | Solid-liquid equilibrium temperature ([3]; 329000 kPa, Closed cell (Static) method): 323.15 ± 2 K | Solid-liquid equilibrium temperature ([3]; 400000 kPa, Closed cell (Static) method): 333.15 ± 2.2 K | Solid-liquid equilibrium temperature ([3]; 480000 kPa, Closed cell (Static) method): 343.15 ± 2.3 K | Solid-liquid equilibrium temperature ([3]; 569000 kPa, Closed cell (Static) method): 353.15 ± 2.6 K

More lines, now with the values ahead:

Molar enthalpy of transition or fusion [1]: 0.809 ± 0.0406 kcal/mol | Normal melting temperature ([2]; DTA): -51.70 ± 0.4 °C
Compound: CC(=O)OC1CCCCC1 [cyclohexyl ethanoate]

Normal melting temperature ([2]; DTA): -51.70 ± 0.39 °C
Compound: CC(=O)OCCC1CCCCC1 [cyclohexylethyl acetate]
